Laboratory results published in patent US11390626B2, “Pyrazolopyrimidine modulators of RAS GTPase” (Tosk, Inc., priority 2019, dated 2022).
Several values for one entry are separate records, joined by “and”; a condition that tells them apart may be missing. Equal entries are not always repeated.

Test system: Drosophila melanogaster flies with human G12V kRAS expressed in the wing
Assay: Fly screen: reversal of crinkled wing phenotype
Assay type: in vivo
Description: The Tosk approach uses Drosophila melanogaster flies as media for initial screening for RAS modulating compounds. Tosk has created a fruit fly with human kRAS G12V expressed in its wing. The mutant kRAS expressed in the fly wing appears functional, even though it operates in the presence of the other physiological systems present in the fly. The fly phenotype in the mutant fly is a crimped wing which can be reversed to a great extent if the fly is fed food enriched with an effective kRAS inhibitor. The fly kRAS suppressor screen can provide a more predictive model compared to conventional discovery methods because the kRAS is in its natural (i.e., not artificial/isolated/manipulated) environment anchored to the plasma membrane, positioned correctly, and surrounded by appropriate neighboring chemicals. Several reports have emphasized the importance of kRAS positioning and environment to realize protein activity.
2. Fly with Crinkled Wing Phenotype.
1. Production of Fly Food/Test Article Mix. A Biomek 2000 robotic arm is used to pipet 40 μL of a 10 mM DMSO solution of Test Article into a 35 mL polypropylene Drosophila fly vial (VWR 89092-728) containing 10 mL ETOH. A half teaspoon blue fly food (4-24, Carolina Biological Supply), is added and the tubes are vortexed and placed into a HT-4X GeneVac to remove the DMSO and ETOH. The tube is vortexed, 4 ml water added, and vortexed again. Control samples are tubes with fly food prepared with just 40 μL DMSO, no Test Article, or 40 μL of a DMSO solution containing 50 μM of the trametanib positive control. 2. Screen. Several hundred male G12V kRAS flies and several hundred GAL4 females are placed in a custom Plexiglas population cage (12″×12″×8″) made fly condo containing grape agar and yeast paste prepared using a published protocol. Embryos from the container are washed off the grape agar onto a sieve and re-suspended in an aqueous sucrose/salt/triton solution. An aliquot of this solution is analyzed using a dissecting microscope to determine the embryo concentration. The appropriate solution to deliver 150 embryos is then added to the fly food/Test article vials. The vial is capped with a cellulose fly bottle plug. […] The vials are incubated at 23° C. in a temperature-controlled room for 12 days. 3. Analysis. After 12 days, all flies in a vial are observed under a microscope following CO2 anesthesia for the number of phenotype reversals compared to the total number of viable flies. Cell culture testing is typically performed for any Test Article showing evidence of >25% phenotype reversal. The trametinib positive control provides reversal of the crimped/crinkled phenotype for 50-75% of the flies.
A library of over 16,000 distinct chemicals was purchased from ChemDiv, San Diego, Calif. All the compounds were evaluated in the fly screen described above for the ability to reverse the crinkled wing phenotype. […] One of the three compounds was Structure 1.

## CC(=O)Nc1cccc(-n2c(=O)n(C3CC3)c(=O)c3c(Nc4ccc(I)cc4F)n(C)c(=O)c(C)c32)c1 [Trametinib]
40 μL of 50 μM DMSO solution in fly food, 12 days
  Reversal of the crimped/crinkled phenotype, share of the flies (positive control, general): 50-75%
Experiment 1, 0.5 μM in fly food
  Flies with Reversed Phenotype: 29%
Experiment 2, 0.5 μM in fly food
  Flies with Reversed Phenotype: 63% and 64%
Experiment 2, 0.5 μM in fly food, listed as trametinib
  Flies with Reversed Phenotype: 63% and 64%
